pIC50: −log10 of the molar value.
How the values were obtained:
JAK1 (h) = target: T1, JAK1 (h) (Homo sapiens, UniProt P23458); assay: JAK1 kinase assay; format: biochemical
T1 construct: purchased Millipore UK Ltd (assays run there as a service)
Experimental: (§1) Kinase assays can be performed by measurement of incorporation of γ-^33P ATP into immobilized myelin basic protein (MBP). High binding white 384 well plates (Greiner) are coated with MBP (Sigma #M-1891) by incubation of 60 μL/well of 20 μg/mL MBP in Tris-buffered saline (TBS; 50 mM Tris pH 8.0, 138 mM NaCl, 2.7 mM KCl) for 24 h at 4° C. Plates are washed 3× with 100 μL TBS. Kinase reactions are carried out in a total volume of 34 μL in kinase buffer (5 mM Hepes pH 7.6, 15 mM NaCl, 0.01% bovine gamma globulin (Sigma #I-5506), 10 mM MgCl2, 1 mM DTT, 0.02% TritonX-100). Compound dilutions are performed in DMSO and added to assay wells to a final DMSO concentration of 1%. Each data point is measured in duplicate, and at least two duplicate assays are performed for each individual compound determination. Enzyme is added to final concentrations of 10 nM or 20 nM, for example. A mixture of unlabeled ATP and γ-^33P ATP is added to start the reaction (2×10^6 cpm of γ-^33P ATP per well (3000 Ci/mmole) and 10 μM unlabeled ATP, typically. The reactions are carried out for 1 h at room temperature with shaking Plates are washed 7× with TBS, followed by the addition of 50 μL/well scintillation fluid (Wallac). Plates are read using a Wallac Trilux counter. This is only one format of such assays; various other formats are possible, as known to one skilled in the art.
The above assay procedure can be used to determine the IC50 for inhibition and/or the inhibition constant, Ki. The IC50 is defined as the concentration of compound required to reduce the enzyme activity by 50% under the condition of the assay. The IC50 value is estimated by preparing a 10 point curve using a ½ log dilution series (for example, a typical curve may be prepared using the following compound concentrations: 3 μM, 1 μM, 0.3 μM, 0.1 μM, 0.03 μM, 0.01 μM, 0.003 μM, 0.001 μM, 0.0003 μM and 0 μM).
JAK1 (h) is incubated with 20 mM Tris/HCl pH 7.5, 0.2 mM EDTA, 500 μM […], 10 mM MgAcetate and [γ-^33P-ATP] (specific activity approx. 500 cpm/pmol, concentration as required).
The kinase assays described herein were performed at Millipore UK Ltd, Dundee Technology Park, Dundee DD2 1SW, UK.

JAK3 (h) = target: T2, JAK3 (h) (Homo sapiens, UniProt P52333); assay: JAK3 kinase assay; format: biochemical
T2 construct: purchased Millipore UK Ltd (assays run there as a service)
T2 sequence (P52333 1-1124): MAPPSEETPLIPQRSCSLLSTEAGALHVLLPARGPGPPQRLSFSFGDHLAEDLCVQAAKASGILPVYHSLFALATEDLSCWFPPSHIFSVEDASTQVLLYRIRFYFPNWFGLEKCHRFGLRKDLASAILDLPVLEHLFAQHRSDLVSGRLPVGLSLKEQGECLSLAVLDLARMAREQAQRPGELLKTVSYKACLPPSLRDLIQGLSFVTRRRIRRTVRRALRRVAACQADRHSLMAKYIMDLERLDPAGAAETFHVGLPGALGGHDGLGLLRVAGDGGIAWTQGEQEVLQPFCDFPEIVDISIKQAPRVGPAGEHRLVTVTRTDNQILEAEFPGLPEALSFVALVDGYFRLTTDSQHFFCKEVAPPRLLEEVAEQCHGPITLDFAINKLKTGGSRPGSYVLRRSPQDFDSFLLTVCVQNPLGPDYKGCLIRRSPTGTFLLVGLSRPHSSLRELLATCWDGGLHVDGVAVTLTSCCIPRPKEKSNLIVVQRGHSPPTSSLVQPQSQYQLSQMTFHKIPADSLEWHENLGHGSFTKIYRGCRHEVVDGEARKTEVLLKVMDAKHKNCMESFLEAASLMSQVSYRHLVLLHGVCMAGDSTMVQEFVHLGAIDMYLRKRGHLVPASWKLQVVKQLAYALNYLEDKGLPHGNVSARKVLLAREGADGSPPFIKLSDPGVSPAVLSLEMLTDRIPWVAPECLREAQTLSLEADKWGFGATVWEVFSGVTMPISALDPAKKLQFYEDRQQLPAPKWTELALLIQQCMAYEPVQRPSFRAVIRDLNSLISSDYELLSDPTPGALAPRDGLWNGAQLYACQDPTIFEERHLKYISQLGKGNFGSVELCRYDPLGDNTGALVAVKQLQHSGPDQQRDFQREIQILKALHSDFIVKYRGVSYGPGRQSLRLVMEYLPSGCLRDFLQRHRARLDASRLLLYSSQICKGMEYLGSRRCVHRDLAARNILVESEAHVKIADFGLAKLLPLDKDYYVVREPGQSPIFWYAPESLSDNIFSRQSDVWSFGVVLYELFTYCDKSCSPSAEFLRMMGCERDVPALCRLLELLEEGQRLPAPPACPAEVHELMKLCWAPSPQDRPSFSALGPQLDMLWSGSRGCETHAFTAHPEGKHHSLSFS
Experimental: as §1, with “art. […]” for “art.”

T1 sequence (P23458 whole entry): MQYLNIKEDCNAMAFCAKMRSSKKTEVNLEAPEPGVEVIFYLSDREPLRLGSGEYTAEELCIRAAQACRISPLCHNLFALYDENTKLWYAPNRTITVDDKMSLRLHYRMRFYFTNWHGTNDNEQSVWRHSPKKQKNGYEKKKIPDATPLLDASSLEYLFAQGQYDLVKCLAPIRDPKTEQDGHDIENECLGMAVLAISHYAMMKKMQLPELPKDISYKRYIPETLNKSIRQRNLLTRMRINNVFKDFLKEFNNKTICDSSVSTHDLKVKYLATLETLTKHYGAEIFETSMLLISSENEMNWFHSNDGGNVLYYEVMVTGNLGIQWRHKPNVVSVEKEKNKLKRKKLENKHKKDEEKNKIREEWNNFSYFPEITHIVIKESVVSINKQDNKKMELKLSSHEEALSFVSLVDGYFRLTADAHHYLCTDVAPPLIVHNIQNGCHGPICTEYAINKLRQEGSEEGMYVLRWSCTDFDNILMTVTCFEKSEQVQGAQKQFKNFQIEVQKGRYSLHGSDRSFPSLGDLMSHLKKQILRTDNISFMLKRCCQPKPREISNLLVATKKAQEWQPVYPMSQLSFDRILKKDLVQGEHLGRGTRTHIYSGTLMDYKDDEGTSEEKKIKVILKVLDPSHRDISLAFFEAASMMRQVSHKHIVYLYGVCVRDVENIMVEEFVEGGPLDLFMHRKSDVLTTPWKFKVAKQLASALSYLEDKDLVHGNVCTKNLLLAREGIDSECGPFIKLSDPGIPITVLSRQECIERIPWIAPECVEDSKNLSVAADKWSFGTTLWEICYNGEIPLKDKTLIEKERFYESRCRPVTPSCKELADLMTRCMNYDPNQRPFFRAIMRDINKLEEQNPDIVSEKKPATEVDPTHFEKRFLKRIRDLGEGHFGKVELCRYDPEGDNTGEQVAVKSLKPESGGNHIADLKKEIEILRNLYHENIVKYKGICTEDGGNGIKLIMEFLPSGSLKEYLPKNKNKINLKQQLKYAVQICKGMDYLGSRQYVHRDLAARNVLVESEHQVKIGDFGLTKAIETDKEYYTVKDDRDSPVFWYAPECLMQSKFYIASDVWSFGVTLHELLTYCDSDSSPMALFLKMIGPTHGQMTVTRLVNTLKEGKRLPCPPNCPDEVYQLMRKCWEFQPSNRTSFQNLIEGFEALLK

| SMILES | pIC50 (JAK1 (h)) | pIC50 (JAK3 (h)) |
| --- | --- | --- |
| Cc1c2ccc(Nc3ncc(Cl)c(NC4CC5CN(C(=O)CC#N)CC5C4)n3)cc2nn1C (stereo not shown) [Ex. 4, 3-(5-((5-chloro-2-((2,3-dimethyl-2H-indazol-6-yl)amino)pyrimidin-4-yl)amino)hexahydrocyclopenta[c]pyrrol-2(1H)-yl)-3-oxopropanenitrile] | 9.00 | 6.27 |
| CC(=O)N1CCC2(CCC(Nc3nc(Nc4ccc5c(C)n(C)nc5c4)ncc3Cl)CC2)CC1 [Ex. 7, 1-(9-((5-chloro-2-((2,3-dimethyl-2H-indazol-6-yl)amino)pyrimidin-4-yl)amino)-3-azaspiro[5.5]undecan-3-yl)ethanone] | 9.05 | 6.85 |
